Reference: patent publication US20070027143A1, “Novel substituted 2,3-benzodiazepine derivatives” (priority 2003, published 2007)
Read-outs that look alike come from different tables or passages of the source.

Key:
CD1 mice [1] = test: Muscle relaxant activity, rotarod test; assay type: in vivo; settings: Mus musculus, ip
CD1 mice [2] = test: Anti-tremor effect, oxotremorine induced tremor; assay type: in vivo; settings: Mus musculus; po., Litchfield-Wilcoxon, limits in brackets; read-out: ED50, tremor induced by Oxotremorin 1 mg/kg ip.
CD1 mice [3] = test: Anticonvulsant activity, 4-aminopyridine induced seizures; assay type: in vivo; settings: Mus musculus, read-out: 4-AP ED50
Method: (§1) The anti-seizure activity of some of the compounds of the present invention was measured using the electroshock test (J. Pharmacol. Exp. Ther. 106:319 (1952)) and the results are shown in Table 3. The spasmolytic activity of the compounds of the present invention was investigated by using e.g., pentetrazole (J. Pharmacol. Exp. Ther. 108:168 (1953)), strychnine (J. Pharmacol. Exp. Ther. 129:75 (1960)), bemegrid, nicotine, bicuculline, 4-aminopyridine and mercapto-propionic acid for inducing the clonic-tonic seizures and lethality. The investigated compounds were administered orally in three doses using 10 male CD1 mice/dose, usually 60 min before the induction of seizures.

Lewis rats [4] = test: Autoimmune encephalomyelitis model, neurological (clinical) symptoms; assay type: in vivo; settings: Rattus norvegicus, read-out: Neurological symptoms (change compared to controls, %); for change in vivo at 7.5 mg/kg: po, 7.5 mg/kg p.o.; for change in vivo at 30 mg/kg: ip, 30 mg/kg ip.
Method: The compounds were administered intraperitoneally twice a day for 8 days, starting on day 10 after immunization and with an observation period until symptoms were present. 5-15 animals were used in each group. Their weights were 160-180 g (Lewis rats, female) and 180-220 g (Lewis rats, male). The activity of the compounds was determined according to the symptom score values, and compared to those of the control group (see Table 6). Histopathological investigations were carried out on the brain stem, the spinal cord, and the sciatic nerve (Gijbels et al., J. Clin. Invest. 94:2177 (1994)) using 5-10 animal/group.
Compounds of the invention were further investigated in the autoimmune encephalomyelitis model in rats as outlined in this description before, with the variance that 10 animals were used in each group, of weights 140-160 g (Lewis rats, female).

CD1 mice [5] = test: Anticonvulsant activity, pentetrazole induced seizures; assay type: in vivo; settings: Mus musculus, read-out: Pentetrazol ED50
Method: as §1

CD1 mice [6] = test: Muscle relaxant activity, inclined screen test; assay type: in vivo; settings: Mus musculus, ip
AMPA receptors = test: Inhibition of AMPA induced spreading depression in isolated chicken retina; assay type: cell-based; settings: AMPA (5 μM)
Method: (§2) In the first model the spreading depression caused by glutamate agonists (i.e., AMPA or kainate) was studied, while in the second one the transmembrane ion-current induced by the activation of the AMPA/kainate receptors was measured directly.
Inhibition of AMPA Induced “Spreading Depression” in Isolated Chicken Retina—
The AMPA antagonistic effect of the compounds of formula (I) or (II) was studied in the in vitro “spreading depression” model (Sheardown Brain Res. 607:189 (1993)). The AMPA antagonists prolong the latency of the development of the “spreading depression” caused by AMPA (5 μM).

CD1 mice [7] = test: Anticonvulsant activity, strychnine induced seizures; assay type: in vivo; settings: Mus musculus, read-out: Strychnine ED50
Method: as §1

AMPA/kainate receptors = test: Inhibition of AMPA induced whole-cell current in acutely isolated cerebellar Purkinje cells (patch clamp); assay type: cell-based; settings: 5 μM AMPA, read-out: Inhibition of the ion-currents caused by 5 μM AMPA, IC50
Method: as §2
The activity of the compounds of the present invention was studied on acutely isolated cerebellar Purkinje cells by measuring the whole-cell current induced by 5 μM AMPA according for example to the method described by Bleakman et al (Neuropharmacology 12:1689 (1996)).

CD1 mice [8] = test: Anticonvulsant activity, maximal electroshock seizure (MES) test; assay type: in vivo; settings: Mus musculus
Method: as §1

CD1 mice [9] = test: Anticonvulsant activity, 3-mercapto-propionic acid induced seizures; assay type: in vivo; settings: Mus musculus, read-out: 3-MPA ED50
Method: as §1

CD1 mice [10] = test: Anticonvulsant activity, bicuculline induced seizures; assay type: in vivo; settings: Mus musculus, read-out: Bicuculline ED50
Method: as §1

CD1 mice [11] = test: Anticonvulsant activity, bemegride induced seizures; assay type: in vivo; settings: Mus musculus, read-out: Bemegride ED50
Method: as §1

Lewis rats [12] = test: Autoimmune encephalomyelitis model, neurological (clinical) symptoms; assay type: in vivo; settings: Rattus norvegicus, po, 3.75 mg/kg p.o., female rats, read-out: Neurological symptoms (change compared to controls, %)
CD1 mice [13] = test: Anticonvulsant activity, nicotine induced seizures; assay type: in vivo; settings: Mus musculus; po.
Method: as §1

CD1 mice [14] = test: Anti-tremor effect, GYKI 20039 induced tremor; assay type: in vivo; settings: Mus musculus; po., Litchfield-Wilcoxon, limits in brackets; read-out: ED50, tremor induced by GYKI 20039 10 mg/kg ip.
[15] = system: tumor cell types (colon adenocarcinoma, astrocytoma, breast carcinoma, lung carcinoma and neuroblastoma); settings: Rzeski et al.; cited from earlier work
BN rats [16] = test: Bronchial hyperresponsiveness of ovalbumin sensitized, antigen challenged BN rats (tracheal rings, acetylcholine); assay type: in vivo; settings: 3.0 mg/kg po, 2 hours pre-challenge, mean ± SE
Excerpt: (§3) Bronchial hyperresponsiveness (BHR) and airway eosinophilia (AEP) are characteristic features of bronchial asthma. BHR is typified by an exaggerated response to a wide variety of stimuli that can induce an increased resistance to airflow in the airways. AEP is a result of prolonged eosinophil infiltration, mast cell, and T cell activation in the airways. In actively (e.g., ovalbumin) immunized rats (e.g., Brown Norway [BN] strain), repeated sensitization followed by antigenic challenge results in lung eosinophilia and bronchial hyperresponsiveness to different spasmogens (e.g., acetylcholine). This is the most frequently employed model for studying potential anti-asthmatic effects of new chemical entities.
(§4) BN rats were actively immunized with allergen (ovalbumin). On day one, rats were sensitized with the subcutaneous administration of ovalbumin suspended in Al(OH)3 (2.5 μg ovalbumin +20 mg Al(OH)3 in 0.5 ml saline). Booster injections (same dose and same route) were given at day 14 and 21. Simultaneously at each occasion 0.25 ml of Bordatella pentussis vaccine was injected intraperitoneally. On day 28, animals were challenged by inhalation of the antigen (vaporized 1% OVA solution for 1 hour). Test compounds were administered orally 2 hours pre-challenge.
(§5) 48 hours following challenge, they were sacrificed by an overdose of urethane (4-5 ml of 15% urethane given i.p.), bronchoalveolar lavage fluid (BALF) was obtained, and tracheae dissected from the animals. Eosinophil cell count (cells/ml BALF) was determined manually using a selective stain for eosinophils and counting the cells in a Buerker chamber. BHR was determined using tracheal rings suspended in an organ bath. After an equilibration period of 30 minutes, cumulative concentration response curves to acetylcholine were determined. Maximal response of control (unchallenged, non-treated) tracheal rings is obtained at 10^−3 M acetylcholine. The height of this response is defined as 100%. All other contractions are expressed as a percentage and related to the control response.

CD1 mice [17] = test: Anti-tremor effect, harmaline induced tremor; assay type: in vivo; settings: po., Litchfield-Wilcoxon, limits in brackets
BN rats [18] = test: Airway eosinophilia of ovalbumin sensitized, antigen challenged BN rats (BALF eosinophil count); assay type: in vivo; settings: 3.0 mg/kg po, 2 hours pre-challenge, mean ± SE
Excerpt: as §3, §4, §5

[19] = 0.5 h, po., 30′, read-out: MES 30′ ED50
[20] = 1 h, po., 60 min before induction, read-out: MES (MES 60′) ED50

SMILES | ED50 (CD1 mice [1]) [mg/kg] | melting point [°C] | ED50 (CD1 mice [2]) [mg/kg] | ED50 (CD1 mice [3]; po.) [mg/kg] | change in vivo at 7.5 mg/kg (Lewis rats [4]; female rats, 0-8 day) [%] | change in vivo at 7.5 mg/kg (Lewis rats [4]; female rats, 0-14 day) [%] | ED50 (CD1 mice [5]; po.) [mg/kg] | ED50 (CD1 mice [6]) [mg/kg] | IC50 (AMPA receptors) [nM] | ED50 (CD1 mice [7]; po.) [mg/kg] | IC50 (AMPA/kainate receptors) [nM] | ED50 (CD1 mice [8]; [19]) [mg/kg] | ED50 (CD1 mice [8]; [20]) [mg/kg] | ED50 (CD1 mice [9]; po.) [mg/kg] | ED50 (CD1 mice [10]; po.) [mg/kg] | ED50 (CD1 mice [11]; po.) [mg/kg] | change in vivo at 3.75 mg/kg (Lewis rats [12]; 0-8 day) [%] | change in vivo at 3.75 mg/kg (Lewis rats [12]; 0-14 day) [%] | ED50 (CD1 mice [13]) [mg/kg] | ED50 (CD1 mice [14]) [mg/kg] | further results
CCCc1nnc(N2N=C(c3ccc(N)c(C)c3)c3cc4c(cc3C[C@H]2C)OCO4)s1 [Example 166, (R)-5-(4-Amino-3-methylphenyl)-8-methyl-7-(5-propyl-1,3,4-thiadiazol-2-yl)-8,9-dihydro-7H-1,3-dioxolo[4,5-h][2,3]benzodiazepine] | 0.86 | 150 to 154 | 2.74 | 6.81 | -51 | -53 | 9.18 | 3.27 | 201 | 7.29 | 28 | 4.54 | 4.01 | 9.92 | 13.3 | 7.77 | -6 | -9 | 21.8 | 4.54 | –
COCc1nnc(N2N=C(c3ccc(N)c(C)c3)c3cc4c(cc3C[C@H]2C)OCO4)s1 [Example 168, (R)-5-(4-Amino-3-methylphenyl)-8-methyl-7-(5-methoxymethyl-1,3,4-thiadiazol-2-yl)-8,9-dihydro-7H-1,3-dioxolo-[4,5-h][2,3]benzodiazepine] | 0.8 | 171 to 172 | 3.29 | 4.6 | -55 | -56 | 6.9 | 3.58 | 82 | 10 | 11 | 2.21 | 4.49 | 4.62 | 10.6 | 6.7 | -16 | -23 | 17.7 | 4.11 | –
CC1=NN=C(c2ccc(N)cc2)c2cc3c(cc2C1)OCO3 [GYKI 52466, 5-(4-aminophenyl)-8-methyl-9H-1,3-dioxolo[4,5-h][2,3]benzodiazepine, reference compound] | 25.1 | – | 20.5 | – | – | – | – | 47.1 | 9500 | – | 8800 | – | – | – | – | – | – | – | 71.8 | 37.1 | ED50 (CD1 mice [3]; po): 43 mg/kg; change in vivo at 30 mg/kg (Lewis rats [4]; female rats, 0-8 day): -45%; change in vivo at 30 mg/kg (Lewis rats [4]; female rats, 0-14 day): -4%; change in vivo at 30 mg/kg (Lewis rats [4]; male rats, 0-8 day): -1%; change in vivo at 30 mg/kg (Lewis rats [4]; male rats, 0-14 day): -1%; ED50 (CD1 mice [5]; po): 120 mg/kg; ED50 (CD1 mice [7]; po): 86.7 mg/kg; Growth of selected tumor cell types [15]: inhibit growth; ED50 (CD1 mice [8]; po, 0.5 h, read-out: MES 30′ ED50): 21.9 mg/kg; ED50 (CD1 mice [8]; po, 1 h, read-out: MES (MES 60′) ED50): 37.4 mg/kg; ED50 (CD1 mice [9]; po): 47 mg/kg; MAX: relative contraction compared to the control at a maximal Ach concentration (BN rats [16]): 135 ± 105%; ED50 (CD1 mice [10]; po): 35 mg/kg; ED50 (CD1 mice [11]; po): 71.9 mg/kg; ED50, tremor induced by Harmaline 40 mg/kg ip. (CD1 mice [17]): 38.5(25.7-57.9) mg/kg po.; BALF eosinophil number (BN rats [18]): 0.91 ± 0.13 ×10^6/ml
